The values below come from PMC11047177 (ESMO Open, 2024).

In test [1] the test system is selected locally advanced or metastatic solid tumors. The test can be described thus: Tumor response by RECIST v1.1. Type of test: in vivo, human. The following applies: for Duration of response (DoR): part 1.
Test [2] relates to non-small-cell lung cancer (NSCLC) cells. Particulars: in vitro; cited from earlier work.

With `Cc1ncnc2c1ccn2[C@@H]1C[C@H](Oc2cc(C(F)F)c(F)c3c2CNCC3)[C@@H](O)[C@H]1O` [PF-06939999], the Objective response rate in test [1] (part 1 + part 2, 3/54 patients) was determined as 6%. Moreover, in test [1] (part 1 + part 2, 19 patients, response-assessable population (44 patients)), the Stable disease worked out at 43.2%. In addition, in test [1] (part 1, 28 patients treated, two patients (HNSCC 2 mg b.i.d., NSCLC 4 mg b.i.d.)), the “Confirmed PRs” value stood at 7%. Besides, the “Duration of response (DoR)” value in test [1] (confirmed responder with HNSCC, 2 mg b.i.d.) turned out to be 4 months; in test [1] (confirmed responder with NSCLC, 4 mg b.i.d.), 5 months. In addition, the Progressive disease in test [1] (part 2, 26 patients, 6 mg q.d., 8 patients) stood at 31%. In addition, in test [1] (part 2, 26 patients, 6 mg q.d., 11 patients), the Disease control stood at 42%. Moreover, the “Confirmed PR” value in test [1] (part 2, 26 patients, 6 mg q.d., one patient with NSCLC) turned out to be 4%. In test [2], the Anti-proliferative activity entry was “demonstrated anti-proliferative activity”.
